According to patent US11878965B2, “Inhibitors of peptidylarginine deiminases” (Gilead Sciences, Inc., priority 2020, dated 2024):

target: human PAD4 (Homo sapiens (Human), UniProt Q9UM07); assay: In Vitro PAD4 BAEE Biochemical Assay; details: human PAD4, BAEE substrate; 5 nM PAD4, 2 mM calcium chloride, 3 mM BAEE; geometric mean of multiple experiments
Summary of the method: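 Deimination of BAEE substrate (3 mM) measured as ammonia via o-phthalaldehyde–DTT isoindole fluorescence, 405/535 nm. Tag-free bacterially expressed human PAD4 at 5 nM with 2 mM calcium chloride, pH 7.6 MOPS buffer, 30 min compound preincubation then 2 h reaction, both at 25 °C.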

Chain of human PAD4 (Q9UM07 2-663): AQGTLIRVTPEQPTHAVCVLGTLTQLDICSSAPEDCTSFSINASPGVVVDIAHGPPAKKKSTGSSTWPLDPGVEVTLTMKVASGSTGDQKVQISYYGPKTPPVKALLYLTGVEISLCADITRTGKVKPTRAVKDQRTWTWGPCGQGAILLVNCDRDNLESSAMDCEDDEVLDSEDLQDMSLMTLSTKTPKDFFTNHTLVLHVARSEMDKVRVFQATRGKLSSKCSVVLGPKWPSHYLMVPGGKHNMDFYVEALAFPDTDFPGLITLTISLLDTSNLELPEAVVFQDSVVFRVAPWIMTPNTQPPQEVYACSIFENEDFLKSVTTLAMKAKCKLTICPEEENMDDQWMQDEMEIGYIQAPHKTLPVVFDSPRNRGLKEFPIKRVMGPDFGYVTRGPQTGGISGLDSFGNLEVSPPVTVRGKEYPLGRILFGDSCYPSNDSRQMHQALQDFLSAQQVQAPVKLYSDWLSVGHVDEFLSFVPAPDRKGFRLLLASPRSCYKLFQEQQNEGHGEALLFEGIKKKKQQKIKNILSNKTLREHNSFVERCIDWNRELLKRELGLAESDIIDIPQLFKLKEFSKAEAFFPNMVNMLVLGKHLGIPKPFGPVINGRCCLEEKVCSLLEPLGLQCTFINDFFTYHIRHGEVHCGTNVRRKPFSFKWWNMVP

IC50 | Structure (SMILES)
0.531 µM | COc1cc(C(=O)N2C[C@H](N)CC[C@@H]2C)cc2nc(-c3cc4ccc(N5C(=O)CCC5C)nc4n3CC3CC3)n(C)c12 (stereo partly drawn) [Example 280, 1-(2-(5-((2S,5R)-5-amino-2-methylpiperidine-1-carbonyl)-7-methoxy-1-methyl-1H-benzo[d]imidazol-2-yl)-1-(cyclopropylmethyl)-1H-pyrrolo[2,3-b]pyridin-6-yl)-5-methylpyrrolidin-2-one]
0.229 µM | CCN(c1ccc2cc(-c3nc4cc(C(=O)N5CCC[C@@H](N)[C@H]5C)cc(OC)c4n3CCOC)n(CC3CC3)c2n1)S(C)(=O)=O [Example 41, N-(2-(5-((2R,3R)-3-amino-2-methylpiperidine-1-carbonyl)-7-methoxy-1-(2-methoxyethyl)-1H-benzo[d]imidazol-2-yl)-1-(cyclopropylmethyl)-1H-pyrrolo [2,3-b]pyridin-6-yl)-N-ethylmethanesulfonamide]
0.487 µM | COc1cc(C(=O)N2CCC[C@@H](N)[C@H]2C)cc2nc(-c3cc4ccc(N(C)S(C)(=O)=O)nc4n3C3CC3)n(CC3CC3)c12 [Example 49, N-(2-(5-((2R,3R)-3-amino-2-methylpiperidine-1-carbonyl)-1-(cyclopropylmethyl)-7-methoxy-1H-benzo[d]imidazol-2-yl)-1-cyclopropyl-1H-pyrrolo[2,3-b]pyridin-6-yl)-N-methylmethanesulfonamide]
0.481 µM | COc1cc(C(=O)N2C[C@H](N)CCN2C)cc2nc(-c3cc4ccc([C@@H](C)NC(=O)C5(c6ccccc6)CC5)nc4n3CC3CC3)n(C)c12 [Example 160, N-((R)-1-(2-(5-((R)-5-amino-2-methylhexahydropyridazine-1-carbonyl)-7-methoxy-1-methyl-1H-benzo[d]imidazol-2-yl)-1-(cyclopropylmethyl)-1H-pyrrolo[2,3-b]pyridin-6-yl)ethyl)-1-phenylcyclopropane-1-carboxamide]
0.127 µM | COc1cc(C(=O)N2C[C@H](N)[C@@H]3CC[C@H]2C3)cc2nc(-c3cc4ccc([C@@H](C)NC(=O)C56CC(C(F)(F)F)(C5)C6)nc4n3CC3CC3)n(C)c12 [Example 230, N-((R)-1-(2-(5-((1S,4R,5R)-4-amino-2-azabicyclo[3.2.1]octane-2-carbonyl)-7-methoxy-1-methyl-1H-benzo[d]imidazol-2-yl)-1-(cyclopropylmethyl)-1H-pyrrolo[2,3-b]pyridin-6-yl)ethyl)-3-(trifluoromethyl)bicyclo[1.1.1] pentane-1-carboxamide]
0.174 µM | COc1cc(C(=O)N2C[C@H](N)CCN2C)cc2nc(-c3cc4ccc([C@@H](C)NC(=O)C5(C(F)(F)F)CC5)nc4n3CC3CC3)n(C)c12 [Example 192, N-((R)-1-(2-(5-((R)-5-amino-2-methylhexahydropyridazine-1-carbonyl)-7-methoxy-1-methyl-1H-benzo[d]imidazol-2-yl)-1-(cyclopropylmethyl)-1H-pyrrolo[2,3-b]pyridin-6-yl)ethyl)-1-(trifluoromethyl)cyclopropane-1-carboxamide]

same assay, conditions: recombinant PAD4 5 nM, 2 mM calcium chloride, 3 mM BAEE substrate; geometric mean of multiple experiments

IC50 | Structure (SMILES)
0.0486 µM | C[C@@H](NC(=O)C1CCOCC1)c1ccc2cc(-c3nc4cc(C(=O)N5C[C@H](N)[C@@H]6CC[C@H]5C6)cc(F)c4n3C3CC3)n(CC3CC3)c2n1 [Example 304, N-((R)-1-(2-(5-((1S,4R,5R)-4-amino-2-azabicyclo[3.2.1]octane-2-carbonyl)-1-cyclopropyl-7-fluoro-1H-benzo[d]imidazol-2-yl)-1-(cyclopropylmethyl)-1H-pyrrolo[2,3-b]pyridin-6-yl)ethyl)tetrahydro-2H-pyran-4-carboxamide]
0.0928 µM | COc1cc(C(=O)N2C[C@H](N)[C@@H]3CC[C@H]2C3)cc2nc(-c3cc4ccc([C@@H](C)NC(=O)c5cccnc5C(F)(F)F)nc4n3CC3CC3)n(C)c12 [Example 306, N-((R)-1-(2-(5-((1S,4R,5R)-4-amino-2-azabicyclo[3.2.1]octane-2-carbonyl)-7-methoxy-1-methyl-1H-benzo[d]imidazol-2-yl)-1-(cyclopropylmethyl)-1H-pyrrolo[2,3-b]pyridin-6-yl)ethyl)-2-(trifluoromethyl)nicotinamide]
